Experimental data: BindingDB's records for doi:10.1016/j.bmcl.2009.03.149 (Gsk, 2009)

How the values were obtained:
Test in all cases: Enzyme Inhibition Assay
Beta-secretase 1 = Beta-secretase 1 (Homo sapiens, UniProt P56817); conditions: pH 4.5; 22 °C
Beta-secretase 2 = molecular target: T1, Beta-secretase 2 (Homo sapiens, UniProt Q9Y5Z0)
T1 sequence (Q9Y5Z0 whole entry): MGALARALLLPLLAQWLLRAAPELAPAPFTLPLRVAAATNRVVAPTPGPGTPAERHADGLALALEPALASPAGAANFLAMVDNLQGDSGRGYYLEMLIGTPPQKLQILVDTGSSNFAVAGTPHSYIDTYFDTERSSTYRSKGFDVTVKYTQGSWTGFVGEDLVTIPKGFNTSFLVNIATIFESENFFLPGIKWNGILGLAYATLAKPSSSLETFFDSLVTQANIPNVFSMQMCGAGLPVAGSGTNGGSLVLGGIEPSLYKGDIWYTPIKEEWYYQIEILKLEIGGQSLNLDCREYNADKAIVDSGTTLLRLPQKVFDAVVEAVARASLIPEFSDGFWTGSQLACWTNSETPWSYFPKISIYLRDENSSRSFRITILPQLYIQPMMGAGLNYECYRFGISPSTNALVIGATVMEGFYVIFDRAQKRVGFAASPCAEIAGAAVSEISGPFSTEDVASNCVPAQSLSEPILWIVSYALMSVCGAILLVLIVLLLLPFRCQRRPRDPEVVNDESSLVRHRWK

Cathepsin D = Cathepsin D (Homo sapiens, UniProt P07339)
Chain of Cathepsin D (P07339 65-162 limits assumed): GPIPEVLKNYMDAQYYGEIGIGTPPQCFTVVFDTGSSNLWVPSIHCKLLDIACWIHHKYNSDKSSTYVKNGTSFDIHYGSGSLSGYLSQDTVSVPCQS
Chain of Cathepsin D (P07339 169-412 limits assumed): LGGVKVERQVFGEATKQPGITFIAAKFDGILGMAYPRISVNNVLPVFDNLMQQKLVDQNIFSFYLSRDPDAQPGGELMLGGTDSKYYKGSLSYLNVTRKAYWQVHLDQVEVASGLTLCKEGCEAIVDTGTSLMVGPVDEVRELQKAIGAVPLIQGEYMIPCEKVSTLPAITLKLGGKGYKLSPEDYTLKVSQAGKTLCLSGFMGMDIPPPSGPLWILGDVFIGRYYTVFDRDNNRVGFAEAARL

Chain of Beta-secretase 1 (P56817 whole entry): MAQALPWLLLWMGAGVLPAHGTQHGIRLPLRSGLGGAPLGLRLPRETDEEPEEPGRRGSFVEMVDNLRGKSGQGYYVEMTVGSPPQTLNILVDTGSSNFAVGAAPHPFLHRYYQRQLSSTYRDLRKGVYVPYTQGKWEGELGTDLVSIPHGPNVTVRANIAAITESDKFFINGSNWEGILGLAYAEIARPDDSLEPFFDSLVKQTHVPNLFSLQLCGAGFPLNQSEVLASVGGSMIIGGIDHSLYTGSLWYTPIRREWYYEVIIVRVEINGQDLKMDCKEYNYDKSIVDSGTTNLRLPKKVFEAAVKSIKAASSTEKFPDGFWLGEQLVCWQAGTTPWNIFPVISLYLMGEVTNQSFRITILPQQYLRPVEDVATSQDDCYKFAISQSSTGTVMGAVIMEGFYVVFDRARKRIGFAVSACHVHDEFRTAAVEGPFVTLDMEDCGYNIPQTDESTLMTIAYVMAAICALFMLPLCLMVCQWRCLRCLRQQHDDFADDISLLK

| IC50 (Beta-secretase 1) [µM] | IC50 (Beta-secretase 2) [µM] | IC50 (Cathepsin D; pH 4.5, 22 °C) [µM] | IC50 (Cathepsin D) [µM] | Compound |
| --- | --- | --- | --- | --- |
| 0.086 | 0.45 | 0.13 |  | CCc1cn2c3c(cc(C(=O)N[C@@H](Cc4ccccc4)[C@H](O)CNC4CCOCC4)cc13)OS(=O)(=O)CC2 [sulfone tricyclic analogue, 19] |
| 0.015 | 0.49 |  | 6.61 | CCc1cn2c3c(cc(C(=O)N[C@@H](Cc4ccccc4)[C@H](O)CNC4CCOCC4)cc13)N(C)S(=O)(=O)CC2 [BMCL193674 Compound 6] |
